Reference: ChEMBL document CHEMBL6083249, “The journey of p38 MAP kinase inhibitors: From bench to bedside in treating inflammatory diseases” (Eur J Med Chem, 2024)
Values belong to the compound of their own block, whether it stands above or below them.

Key:
[1] = Clearance in Wistar rat at 3 mg/kg, iv; assay type: ADME, organism-based; conditions: in vivo
[2] = Volume of distribution at steady state in Wistar rat at 3 mg/kg, iv; assay type: ADME, organism-based; conditions: in vivo, read-out: Vdss
[3] = MRT in ICR mouse at 5 mg/kg, iv by LC-MS/MS analysis; assay type: ADME, organism-based; conditions: in vivo
[4] = Oral bioavailability in ICR mouse; assay type: ADME, organism-based; conditions: in vivo
[5] = Oral bioavailability in rat; assay type: ADME, organism-based; conditions: in vivo
[6] = Cmax in Wistar rat at 3 mg/kg, iv; assay type: ADME, organism-based; conditions: in vivo
[7] = Cmax in ICR mouse at 5 mg/kg, iv by LC-MS/MS analysis; assay type: ADME, organism-based; conditions: in vivo
[8] = Tmax in ICR mouse at 5 mg/kg, iv; assay type: ADME, organism-based; conditions: in vivo
[9] = Volume of distribution at steady state in ICR mouse at 2 mg/kg, iv; assay type: ADME, organism-based; conditions: in vivo, read-out: Vdss
[10] = Clearance in ICR mouse at 2 mg/kg, iv; assay type: ADME, organism-based; conditions: in vivo
[11] = target: Protein kinase C alpha type (Homo sapiens, UniProt P17252); experiment: Inhibition of PKCalpha (unknown origin)
[12] = target: Protein kinase C beta type (Homo sapiens, UniProt P05771); experiment: Inhibition of PKCbeta2 (unknown origin)
THP-1 [13] = experiment: Antiinflammatory activity against human THP-1 cells assessed as inhibition of LPS-induced TNF-alpha production; assay type: functional, cell-based
[14] = Cmax in Wistar rat at 10 mg/kg, po by LC-MS/MS analysis; assay type: ADME, organism-based; conditions: in vivo
[15] = Tmax in Wistar rat at 10 mg/kg, po by LC-MS/MS analysis; assay type: ADME, organism-based; conditions: in vivo
[16] = Clearance in Sprague-Dawley rat at 10 mg/kg, iv by HPLC-MS analysis; assay type: ADME, organism-based; conditions: in vivo
RAW264.7 = experiment: Anti-inflammatory activity in LPS-induced mouse RAW264.7 cells assessed as inhibition of IL-6 production; assay type: functional, cell-based
THP-1 [17] = experiment: Anti-inflammatory activity in human THP-1 cells assessed as inhibition of IL-1beta protein expression incubated for 24 hrs by Western blot analysis; assay type: functional, cell-based; conditions: THP-1, 24 h
[18] = Oral bioavailability in Sprague-Dawley rat at 10 mg/kg by LC-MS analysis; assay type: ADME, organism-based; conditions: in vivo
[19] = AUC in Sprague-Dawley rat at 10 mg/kg, po measured for 24 hrs by LC-MS/MS analysis; assay type: ADME, organism-based; conditions: in vivo
[20] = Volume of distribution at steady state in Sprague-Dawley rat at 10 mg/kg, iv measured for 24 hrs by LC-MS/MS analysis; assay type: ADME, organism-based; conditions: in vivo, read-out: Vdss
[21] = target: Mitogen-activated protein kinase kinase kinase 7 (Homo sapiens, UniProt O43318); experiment: Inhibition of TAK1 (unknown origin)
[22] = target: Mitogen-activated protein kinase 3 (Homo sapiens, UniProt P27361); experiment: Inhibition of ERK1 (unknown origin)
[23] = Oral bioavailability in rat at 2 mg/kg by LC-MS/MS analysis; assay type: ADME, organism-based; conditions: in vivo
[24] = Half life in Beagle dog at 5 mg/kg, po by LC-MS/MS analysis; assay type: ADME, organism-based, Canis lupus familiaris; conditions: in vivo
[25] = Clearance in dog; assay type: ADME, Canis lupus familiaris; conditions: in vivo
[26] = Clearance in rat; assay type: ADME; conditions: in vivo

Chain of Protein kinase C beta type (P05771 whole entry): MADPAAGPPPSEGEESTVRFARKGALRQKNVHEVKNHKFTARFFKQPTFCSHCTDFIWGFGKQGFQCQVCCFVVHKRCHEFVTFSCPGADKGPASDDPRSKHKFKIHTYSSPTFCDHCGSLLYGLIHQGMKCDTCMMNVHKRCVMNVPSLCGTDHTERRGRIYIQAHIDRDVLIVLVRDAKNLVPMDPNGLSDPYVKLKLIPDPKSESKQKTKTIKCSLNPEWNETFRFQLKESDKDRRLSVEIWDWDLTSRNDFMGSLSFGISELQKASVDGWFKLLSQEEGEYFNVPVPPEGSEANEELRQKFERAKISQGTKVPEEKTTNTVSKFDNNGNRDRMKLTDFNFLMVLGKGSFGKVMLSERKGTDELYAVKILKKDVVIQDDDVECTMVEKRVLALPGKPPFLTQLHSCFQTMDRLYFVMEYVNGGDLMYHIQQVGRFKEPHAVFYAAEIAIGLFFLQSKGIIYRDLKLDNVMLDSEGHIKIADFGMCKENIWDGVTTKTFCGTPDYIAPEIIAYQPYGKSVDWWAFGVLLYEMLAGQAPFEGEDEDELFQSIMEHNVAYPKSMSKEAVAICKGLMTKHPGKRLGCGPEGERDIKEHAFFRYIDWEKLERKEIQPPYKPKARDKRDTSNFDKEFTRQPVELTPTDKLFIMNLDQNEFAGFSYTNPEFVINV
Chain of Mitogen-activated protein kinase 3 (P27361 whole entry): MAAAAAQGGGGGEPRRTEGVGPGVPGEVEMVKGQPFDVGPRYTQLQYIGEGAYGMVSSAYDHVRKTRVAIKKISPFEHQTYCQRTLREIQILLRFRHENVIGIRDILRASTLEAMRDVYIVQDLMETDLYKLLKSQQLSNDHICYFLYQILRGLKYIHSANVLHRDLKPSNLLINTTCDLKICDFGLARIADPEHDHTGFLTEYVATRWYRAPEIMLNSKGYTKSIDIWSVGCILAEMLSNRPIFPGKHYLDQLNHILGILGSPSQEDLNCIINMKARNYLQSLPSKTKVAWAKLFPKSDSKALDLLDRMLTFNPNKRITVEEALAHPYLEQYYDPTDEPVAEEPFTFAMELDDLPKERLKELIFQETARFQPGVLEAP
Chain of Mitogen-activated protein kinase kinase kinase 7 (O43318 whole entry): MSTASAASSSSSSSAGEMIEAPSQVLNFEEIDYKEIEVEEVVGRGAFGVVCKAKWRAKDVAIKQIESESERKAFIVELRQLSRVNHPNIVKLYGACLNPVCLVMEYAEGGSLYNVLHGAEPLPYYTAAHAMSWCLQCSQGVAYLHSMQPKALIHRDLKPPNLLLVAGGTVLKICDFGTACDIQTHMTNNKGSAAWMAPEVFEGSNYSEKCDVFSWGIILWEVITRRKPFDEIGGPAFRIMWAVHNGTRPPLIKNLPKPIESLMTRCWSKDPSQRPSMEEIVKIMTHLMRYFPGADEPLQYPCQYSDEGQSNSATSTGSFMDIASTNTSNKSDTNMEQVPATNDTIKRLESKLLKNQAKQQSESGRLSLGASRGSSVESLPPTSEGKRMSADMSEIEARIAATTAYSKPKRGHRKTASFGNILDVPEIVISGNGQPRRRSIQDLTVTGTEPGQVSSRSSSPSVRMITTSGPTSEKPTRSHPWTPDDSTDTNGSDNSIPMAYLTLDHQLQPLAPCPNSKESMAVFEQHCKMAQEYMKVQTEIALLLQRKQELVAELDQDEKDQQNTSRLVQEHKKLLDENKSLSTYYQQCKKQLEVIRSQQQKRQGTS

SMILES: C[S+]([O-])c1ccc(-c2nc(-c3ccncc3)c(-c3ccc(F)cc3)[nH]2)cc1 (configuration not stated) [SB-203580]
IC50 [11]: > 100000 nM
IC50 [12]: > 50000 nM

SMILES: Cn1c(=O)c(Oc2ccc(F)cc2F)cc2cnc(NC3CCOCC3)nc21 [R-1487]
IC50 (THP-1 [13]): 800 nM
Cmax [14]: 650 ng/mL
Tmax [15]: 2 h
clearance [16]: 20.7 mL/min/kg
EC50 (RAW264.7): 10 nM
IC50 (THP-1 [17]): 170 nM
bioavailability [18]: 29.3%
AUC [19]: 2.35 µg/h/mL
Vd [20]: 1.94 L/kg

The remaining lines, values ahead:

clearance [1]: 5.4 mL/min/kg
Vd [2]: 1.1 L/kg
MRT [3]: 3.3 h
bioavailability [4]: 90%
bioavailability [5]: 60%
Cmax [6]: 7 µM
Cmax [7]: 15.3 µM
Tmax [8]: 1 h
Vd [9]: 0.9 L/kg
clearance [10]: 4.4 mL/min/kg
SMILES: CCCNC(=O)c1cn2ncnc(Nc3cc(C(=O)NC4CC4)ccc3C)c2c1C [BMS-582949]

IC50 [21]: > 10000 nM
IC50 [22]: > 10000 nM
bioavailability [23]: 21.1%
SMILES: CCc1nc(-c2cccc(C)c2)c(-c2ccnc(NC(=O)c3ccccc3)c2)s1 [TAK-715]

half-life [24]: 4.48 h
clearance [25]: 2.92 mL/min/kg
clearance [26]: 4.86 mL/min/kg
SMILES: O=C(CO)N1CCC(c2[nH]nc(-c3ccc(Cl)cc3)c2-c2ccncn2)CC1 [SD-0006]
